PubChem BioAssay AID248 (DTP/NCI, 2004)
Where “and” joins values, the source holds several entries; their conditions need not be identical. Equal entries are not always repeated. Toxic doses and inconclusive results are not listed. Square brackets hold non-standard residues; d marks the D form. Peptide text beside a SMILES is read from it. βAla = NCCC(=O)O

System: L1210 leukemia ip in BDF1 mice, survival T/C
Test: NCI In Vivo Anticancer Drug Screen. Data for tumor model L1210 Leukemia (intraperitoneal) in B6D2F1 (BDF1) mice
Conditions: endpoint: mean survival time, higher = longer survival
In short: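 Transplantable tumor model; survival measured in treated vs vehicle control mice. Value = treated/control.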

[1] = dose: 100.0 mg/kg/injection, schedule: Q04DX003 (ip), vehicle: acetone
[2] = dose: 50.0 mg/kg/injection, schedule: Q04DX003 (ip), vehicle: Klucel (hydroxypropylcellulose) (HPC)
[3] = dose: 25.0 mg/kg/injection, schedule: Q04DX003 (ip), vehicle: saline with Tween-80
[4] = dose: 100.0 mg/kg/injection, schedule: Q04DX003 (ip), vehicle: saline with Tween-80
[5] = dose: 100.0 mg/kg/injection, schedule: Q04DX003 (ip), vehicle: saline
[6] = dose: 200.0 mg/kg/injection, schedule: Q04DX003 (ip), vehicle: saline
[7] = dose: 400.0 mg/kg/injection, schedule: Q04DX003 (ip), vehicle: saline
[8] = dose: 200.0 mg/kg/injection, schedule: Q04DX003 (ip), vehicle: saline with Tween-80
[9] = dose: 400.0 mg/kg/injection, schedule: Q04DX003 (ip), vehicle: saline with Tween-80
[10] = dose: 100.0 mg/kg/injection, schedule: Q01DX009 (ip), vehicle: Klucel (hydroxypropylcellulose) (HPC)
[11] = dose: 200.0 mg/kg/injection, schedule: Q01DX009 (ip), vehicle: Klucel (hydroxypropylcellulose) (HPC)
[12] = dose: 100.0 mg/kg/injection, schedule: Q01DX001 (ip), vehicle: saline
[13] = dose: 200.0 mg/kg/injection, schedule: Q01DX001 (ip), vehicle: saline
[14] = dose: 400.0 mg/kg/injection, schedule: Q01DX001 (ip), vehicle: saline

OC(CN(CCCl)CCCl)C(O)C(O)C(O)CN(CCCl)CCCl (stereo not given)
T/C (dose: 0.06 mg/kg/injection, schedule: Q01DX Z (ip), vehicle: saline): 102 % of control
T/C (dose: 0.1 mg/kg/injection, schedule: Q01DX Z (ip), vehicle: saline): 102 % of control
T/C (dose: 0.15 mg/kg/injection, schedule: Q01DX Z (ip), vehicle: saline): 105 % of control
T/C (dose: 0.23 mg/kg/injection, schedule: Q01DX Z (ip), vehicle: saline): 110 % of control
T/C (dose: 0.25 mg/kg/injection, schedule: Q01DX Z (ip), vehicle: saline): 103 % of control
T/C (dose: 0.35 mg/kg/injection, schedule: Q01DX001 (ip), vehicle: saline): 150 % of control
T/C (dose: 0.6 mg/kg/injection, schedule: Q01DX Z (ip), vehicle: carboxymethylcellulose (CMC)): 108 % of control
T/C (dose: 0.8 mg/kg/injection, schedule: Q01DX001 (ip), vehicle: saline): 154 % of control
T/C (dose: 0.8 mg/kg/injection, schedule: Q01DX Z (ip), vehicle: saline): 153 % of control and 170 % of control
T/C (dose: 0.9 mg/kg/injection, schedule: Q01DX Z (ip), vehicle: carboxymethylcellulose (CMC)): 102 % of control
T/C (dose: 1.0 mg/kg/injection, schedule: Q01DX001 (ip), vehicle: saline): 122 % of control
T/C (dose: 1.35 mg/kg/injection, schedule: Q01DX Z (ip), vehicle: carboxymethylcellulose (CMC)): 96 % of control
T/C (dose: 1.9 mg/kg/injection, schedule: Q01DX001 (ip), vehicle: saline): 158 % of control
T/C (dose: 2.0 mg/kg/injection, schedule: Q01DX001 (ip), vehicle: saline): 174 % of control
T/C (dose: 2.0 mg/kg/injection, schedule: Q01DX Z (ip), vehicle: saline): 155 % of control and 188 % of control
T/C (dose: 2.03 mg/kg/injection, schedule: Q01DX Z (ip), vehicle: carboxymethylcellulose (CMC)): 118 % of control
T/C (dose: 4.0 mg/kg/injection, schedule: Q01DX001 (ip), vehicle: saline): 152 % of control
T/C (dose: 4.0 mg/kg/injection, schedule: Q01DX Z (ip), vehicle: saline): 117 % of control
T/C (dose: 5.0 mg/kg/injection, schedule: Q01DX001 (ip), vehicle: saline): 194 % of control
T/C (dose: 6.7 mg/kg/injection, schedule: Q01DX Z (ip), vehicle: saline): 118 % of control
T/C (dose: 8.0 mg/kg/injection, schedule: Q01DX001 (ip), vehicle: saline): 97 % of control

CCCCCCCCN(CCCCCCCC)C(C)C(=O)c1ccc2cc(Br)c3ccccc3c2c1 (stereo not given)
T/C [1]: 96 % of control
T/C (dose: 200.0 mg/kg/injection, schedule: Q04DX003 (ip), vehicle: acetone): 107 % of control
T/C (dose: 400.0 mg/kg/injection, schedule: Q04DX003 (ip), vehicle: acetone): 103 % of control

Nc1ncn(C2OC(CO)C(O)C2O)n1 (stereo not given)
T/C (dose: 100.0 mg/kg/injection, schedule: Q01DX005 (ip), vehicle: saline): 105 % of control
T/C (dose: 200.0 mg/kg/injection, schedule: Q01DX005 (ip), vehicle: saline): 103 % of control

Cc1ccc2nc3c4ccccc4scc-3c2c1
T/C [1]: 93 % of control

c1ccc(COCCNCCOCc2ccccc2)cc1
T/C (dose: 12.5 mg/kg/injection, schedule: Q01DX009 (ip), vehicle: Klucel (hydroxypropylcellulose) (HPC)): 100 % of control
T/C (dose: 12.5 mg/kg/injection, schedule: Q04DX003 (ip), vehicle: Klucel (hydroxypropylcellulose) (HPC)): 107 % of control
T/C (dose: 25.0 mg/kg/injection, schedule: Q01DX009 (ip), vehicle: Klucel (hydroxypropylcellulose) (HPC)): 96 % of control
T/C (dose: 25.0 mg/kg/injection, schedule: Q04DX003 (ip), vehicle: Klucel (hydroxypropylcellulose) (HPC)): 94 % of control
T/C (dose: 50.0 mg/kg/injection, schedule: Q01DX009 (ip), vehicle: Klucel (hydroxypropylcellulose) (HPC)): 95 % of control
T/C [2]: 95 % of control

Cc1noc(N)c1C#N
T/C (dose: 100.0 mg/kg/injection, schedule: Q04DX002 (ip), vehicle: saline with Tween-80): 100 % of control
T/C (dose: 200.0 mg/kg/injection, schedule: Q04DX002 (ip), vehicle: saline with Tween-80): 95 % of control
T/C (dose: 400.0 mg/kg/injection, schedule: Q04DX002 (ip), vehicle: saline with Tween-80): 89 % of control

C1[CH2][Hg][CH2]CO1
T/C (dose: 100.0 mg/kg/injection, schedule: Q04DX002 (ip), vehicle: saline): 100 % of control
T/C (dose: 200.0 mg/kg/injection, schedule: Q04DX002 (ip), vehicle: saline): 100 % of control

COc1cc(C(=O)Cl)cc(OC)c1OC
T/C (dose: 18.75 mg/kg/injection, schedule: Q04DX003 (ip), vehicle: saline with Tween-80): 107 % of control
T/C (dose: 37.5 mg/kg/injection, schedule: Q04DX003 (ip), vehicle: saline with Tween-80): 102 % of control
T/C (dose: 75.0 mg/kg/injection, schedule: Q04DX003 (ip), vehicle: saline with Tween-80): 95 % of control

O=c1oc2c(-c3ccccc3)cccc2c(O)c1-c1ccccc1
T/C [3]: 96 % of control
T/C (dose: 50.0 mg/kg/injection, schedule: Q04DX003 (ip), vehicle: saline with Tween-80): 101 % of control
T/C [4]: 93 % of control
T/C [5]: 95 % of control
T/C [6]: 93 % of control
T/C [7]: 93 % of control

CCC(C)c1ccc(O)c(C(C)CC)c1 (stereo not given)
T/C (dose: 100.0 mg/kg/injection, schedule: Q01DX009 (ip), vehicle: saline with Tween-80): 106 % of control
T/C [4]: 106 % of control
T/C (dose: 200.0 mg/kg/injection, schedule: Q01DX009 (ip), vehicle: saline with Tween-80): 101 % of control
T/C [8]: 101 % of control
T/C (dose: 400.0 mg/kg/injection, schedule: Q01DX009 (ip), vehicle: saline with Tween-80): 102 % of control
T/C [9]: 94 % of control

Cc1cc2c(cc1O)C(C)(C)CCC2(C)C
T/C [4]: 92 % of control
T/C [8]: 100 % of control
T/C [9]: 97 % of control

CCN(Cc1ccccc1)C(=O)NC(C)(C)C
T/C [10]: 98 % of control
T/C [11]: 95 % of control

COC(=O)/C=C/c1cccnc1
T/C [2]: 103 % of control
T/C (dose: 100.0 mg/kg/injection, schedule: Q04DX003 (ip), vehicle: Klucel (hydroxypropylcellulose) (HPC)): 93 % of control
T/C (dose: 200.0 mg/kg/injection, schedule: Q04DX003 (ip), vehicle: Klucel (hydroxypropylcellulose) (HPC)): 103 % of control

COc1ccccc1/C=C/c1ccnc2ccccc12
T/C [12]: 101 % of control
T/C [5]: 97 % of control
T/C [13]: 102 % of control
T/C [6]: 100 % of control
T/C [14]: 98 % of control
T/C [7]: 93 % of control

CN(C)c1ccc(/C=N\NC(=O)CCCC(=O)N/N=C/c2ccc(N(C)C)cc2Cl)c(Cl)c1
T/C (dose: 50.0 mg/kg/injection, schedule: Q01DX001 (ip), vehicle: saline): 98 % of control
T/C [12]: 98 % of control
T/C [13]: 102 % of control
T/C [14]: 102 % of control

O=[N+]([O-])c1ccc(Br)o1
T/C (dose: 6.25 mg/kg/injection, schedule: Q04DX003 (ip), vehicle: saline with Tween-80): 110 % of control
T/C (dose: 12.5 mg/kg/injection, schedule: Q04DX003 (ip), vehicle: saline with Tween-80): 101 % of control
T/C [3]: 105 % of control

CC(C)COC(=O)c1ccc(NC(=S)Nc2ccccc2)cc1
T/C [10]: 93 % of control
T/C [11]: 93 % of control

CC(NC(=O)C(CCC(=O)O)NC(=O)C(N)Cc1ccc(O)cc1)C(=O)NCCC(=O)NC(Cc1ccc(O)cc1)C(=O)NC(CCC(=O)O)C(=O)NC(C)C(=O)NCCC(=O)NCC(=O)O (stereo not given) (H-YEA[βAla]YEA[βAla]G-OH; configuration not given here)
T/C (dose: 50.0 mg/kg/injection, schedule: Q01DX001 (ip), vehicle: carboxymethylcellulose (CMC)): 93 % of control
T/C (dose: 100.0 mg/kg/injection, schedule: Q01DX001 (ip), vehicle: carboxymethylcellulose (CMC)): 96 % of control
T/C (dose: 200.0 mg/kg/injection, schedule: Q01DX001 (ip), vehicle: carboxymethylcellulose (CMC)): 98 % of control

CC(C(O)c1ccccc1)[N+](=O)[O-] (stereo not given)
T/C [4]: 100 % of control
T/C [8]: 95 % of control
T/C [9]: 101 % of control

[CH3][Pb]([CH3])([CH3])[O]P(=O)(O)c1ccccc1
T/C (dose: 3.12 mg/kg/injection, schedule: Q04DX002 (ip), vehicle: saline): 98 % of control
T/C (dose: 6.25 mg/kg/injection, schedule: Q04DX002 (ip), vehicle: saline): 103 % of control
T/C (dose: 12.5 mg/kg/injection, schedule: Q04DX002 (ip), vehicle: saline): 98 % of control and 101 % of control
